# Measured values from paper PMC9896555, “Cyclic Acetals as Novel Long-Lasting Mosquito Repellents” (Journal of Agricultural and Food Chemistry, 2023).
# Read-outs that look alike come from different tables or passages of the source.
# Tested on: Aedes albopictus
# Test: Protection time at 0.17 mg/cm2, human-bait technique
# Format: in vivo
# Conditions: for Average PT >95% (% coefficient of variation) / Estimated 100% PT (complete protection time, mean±SE): at the dose of 0.17mg/cm2; for repellent activity, in words: against A. albopictus; for Estimated 100% PT (complete protection time, mean±SE): Kaplan–Meier estimate; for pest or weed control at 0.17 mg/cm2, 0.17 mg/cm2: Aedes albopictus, topical, read-out: Protection time PE%; for Protection time (95% protection): dose of 0.17 mg/cm^2, tests ended after 8 h
# Method: To evaluate the protection time of derivatives, the PE % was measured with 100 μL of a 5% ethanol solution, corresponding to 0.17 mg/cm^2 of exposed skin, under the same laboratory conditions. Mosquito-exposed skin was treated with 100 μL of ethanol, as the negative hand control. For each volunteer (up to 8), the test was performed every hour, up to 8 h from the application. The protection time of DEET and Icaridin was measured under the same conditions. Since these trials were run in parallel with those aimed to profile the cytotoxicity of the compounds (paragraph 2.6), we interrupted the experiments for those compounds showing to have higher cytotoxicity than Icaridin and DEET as soon as the results were available. For this reason, the number of volunteers differs among the compounds.
# The average time until protection which was higher than 95% protection time was considered for each compound. Moreover, for the compounds tested on at least three volunteers, the complete (100%) protection time was also estimated (SPSS 28.01.0) using the Kaplan–Meier survivor function procedure.[22]
SMILES,Average PT >95% (% coefficient of variation),"Protection time PE% (0.17mg/cm2, 0 min)","Protection time PE% (0.17mg/cm2, 1 h)","Protection time PE% (0.17mg/cm2, 2 h)","Protection time PE% (0.17mg/cm2, 3 h)","Protection time PE% (0.17mg/cm2, 4 h)","Protection time PE% (0.17mg/cm2, 5 h)","Protection time PE% (0.17mg/cm2, 6 h)","Protection time PE% (0.17mg/cm2, 7 h)","Protection time PE% (0.17mg/cm2, 8 h)","Estimated 100% PT (complete protection time, mean±SE)",further results
CC(C)c1ccc(C2OCC(CO)O2)cc1 (mixture of isomers) [21a],0 min,–,–,–,–,–,–,–,–,–,–,–
CCCCCCCCCCCC1OCC(CO)O1 (mixture of isomers) [24a],0 min,–,–,–,–,–,–,–,–,–,–,–
CC(C)CC1(CC(C)C)OCC(CO)O1 (racemic) [17a],300 (2.3) min,100%,100%,100%,100%,98%,98.39%,92.05%,74.4%,43.92%,–,–
OCC1COC2(CCCCCCCCCCC2)O1 (racemic) [25a],0 min,–,–,–,–,–,–,–,–,–,–,–
CC1(CO)COC(C)(C)OC1 [5b],0 min,–,–,–,–,–,–,–,–,–,–,"repellent activity, in words: lack of activity"
CCCC1(CCC)OCC(C)(CO)CO1 [7b],300 (1.4) min,100%,99.45%,100%,99.21%,98.74%,98.42%,84.33%,–,–,220 ± 87 min,–
CCCC1(CCC)OCC(CC)(CO)CO1 [7c],360 (3.3) min,99.35%,94.12%,97.7%,98.08%,99.4%,91.72%,97.22%,94.29%,94.44%,60 ± 34 min,–
CC1(CO)COC2(CCCCCCC2)OC1 [12b],420 (3.1) min,–,–,–,–,–,–,–,–,–,240 ± 60 min,"pest or weed control at 0.17 mg/cm2, 0.17 mg/cm2 (0.17mg/cm2, 1 h): 100%; pest or weed control at 0.17 mg/cm2, 0.17 mg/cm2 (0.17mg/cm2, 2 h): 99.5%; pest or weed control at 0.17 mg/cm2, 0.17 mg/cm2 (0.17mg/cm2, 3 h): 98.7%; pest or weed control at 0.17 mg/cm2, 0.17 mg/cm2 (0.17mg/cm2, 4 h): 97.8%; pest or weed control at 0.17 mg/cm2, 0.17 mg/cm2 (0.17mg/cm2, 5 h): 97.2%; pest or weed control at 0.17 mg/cm2, 0.17 mg/cm2 (0.17mg/cm2, 6 h): 93.8%; pest or weed control at 0.17 mg/cm2, 0.17 mg/cm2 (0.17mg/cm2, 7 h): 98.2%; pest or weed control at 0.17 mg/cm2, 0.17 mg/cm2 (0.17mg/cm2, 8 h): 94.9%; Protection time (95% protection): 7 h"
CCC1(CO)COC(CC(C)C)(CC(C)C)OC1 [17c],480 (0) min,98.72%,97.92%,98.68%,100%,98.44%,98.08%,98.53%,100%,100%,–,Protection time (95% protection): 8 h
CCCCCCCCCC1OCC(O)CO1 (stereo not drawn) [trans-18a.6],–,–,–,–,–,–,–,–,–,–,–,"repellent activity, in words: inactive as a repellent"
